From patent US20230105103A1, “THERAPEUTIC MOLECULES FOR COMBATING SEPSIS” (CENTRE FOR CELLULAR AND MOLECULAR PLATFORMS, priority 2019, published 2023)
“Also recorded” adds a separate entry of the source.

Columns and labels:
[1] = system: CLP model of sepsis in mice; experiment: CLP study, survival of mice treated with chito-oligomers; assay type: in vivo; conditions: for protection over 'Antibiotic-alone' group: intervention at 6 hours, 7 days; for survival over 7 days: intervention at 6 hours post-surgery, about 250 μg single IP dose with antibiotics, FIG. 5A
Protocol: The CLP study with 7-9 week old C57BL/6 or BALB/c males was conducted, at animal house facility at TheraIndx Lifesciences Pvt. Ltd. (Bangalore, India) and Institute of Life Sciences (Bhubaneswar, India) respectively, in accordance with ethical practices laid down in the CPCSEA guidelines for animal care and use (CPCSEA, 2003). The Institutional Animals Ethics Committee (IAEC) of the test facility approved the studies. The CLP was performed as described before (Rittirsch et al., 2009; Toscano et al., 2011). […] About 500 μl saline was administered subcutaneously immediately after surgery. Tramadol (about 20 mg/kg) was injected subcutaneously for post-operative analgesia. […] A separate group of C57BL/6 mice received single IP dose of about 250 μg of 6-mer, 7-mer or 8-mer at either 6 hour or 24 hour post CLP. All groups except the CLP alone (control) received a single dose of standard antibiotics (amoxicillin and clavulanate) 6 hour post CLP. Control group was injected with saline solution. Total of 92 C57BL/6 and 18 BALB/c mice were used in the study.
Experimental data were analyzed using GraphPad Prism 8 (GraphPad Software, Inc.). Kruskal-Wallis test and one way ANOVA test was used for analysis of cytokines and reporter assay values. Log-rank (Mantel-Cox) test was utilized for survival analysis. P-values, P<0.05 were considered statistically significant and are denoted by […] if calculated P-values were lower than P=0.05.

CLP mice = experiment: Plasma cytokine levels in CLP mice (Bio-Plex multiplex assay); assay type: in vivo; conditions: for plasma IL-6 levels: 6 hours post intervention, versus untreated, FIG. 5C; for levels of IL-1b over time / levels of MCP-1 over time / levels of TNF-α over time: individual CLP mice, 6 hours versus 48 hours post treatment
Protocol: The CLP study with 7-9 week old C57BL/6 or BALB/c males was conducted, at animal house facility at TheraIndx Lifesciences Pvt. Ltd. (Bangalore, India) and Institute of Life Sciences (Bhubaneswar, India) respectively, in accordance with ethical practices laid down in the CPCSEA guidelines for animal care and use (CPCSEA, 2003). The Institutional Animals Ethics Committee (IAEC) of the test facility approved the studies. The CLP was performed as described before (Rittirsch et al., 2009; Toscano et al., 2011). Sham control mice had undergone surgery with ceacal manipulations without ligation and puncture. About 500 μl saline was administered subcutaneously immediately after surgery. Tramadol (about 20 mg/kg) was injected subcutaneously for post-operative analgesia. BALB/c mice were injected with single IP close of about 500 μg GA132 (GA is the internal code which has been used by the inventors of the present invention) while C57BL/6 mice received single IP dose of about 300 μg or about 700 μg GA132 6 hours post CLP. A separate group of C57BL/6 mice received single IP dose of about 250 μg of 6-mer, 7-mer or 8-mer at either 6 hour or 24 hour post CLP. All groups except the CLP alone (control) received a single dose of standard antibiotics (amoxicillin and clavulanate) 6 hour post CLP. Control group was injected with saline solution. Total of 92 C57BL/6 and 18 BALB/c mice were used in the study.
The Mutiplex immunoassay for Human and Mouse IL-1b, IL-6, IL-10, TNF-α and MCP-1 were purchased from Bio-Rad. For human cytokines, 1×10^6 PBMCs were seeded in 24 well plate a day before and treated with 100 ng/ml LPS or 50 μg/ml GA132 for 24 hours. The culture supernatant from three independent biological replicates was collected and used for the assay without dilution. For mice cytokines, the plasma samples from mice were collected 6 or 48 hours post treatment and diluted in PBS (Phosphate Buffered Saline) in 1:2 before assay. The assay was performed as per manufacturers' method and the beads were read and analyzed in Bio-Plex® MAGRIX™ Multiplex Reader (Bio-Rad) (https://www.bio-rad.com/webroot/web/pdg/lsr/literature/10014905.pdf).

TLR2 [2] = molecular target: T1, TLR2 (Homo sapiens, UniProt O60603); experiment: HEK-Blue TLR2 reporter assay (NF-kb and AP-1 driven SEAP); assay type: cell-based; design: host or cells: HEK293 (HEK-Blue TLR2 reporter cells)
Source text: (§1) P1 fraction tested on reporter cell lines where TLR2, TLR4 or TLR3 is expressed in HEK293 cells and activation of the receptors is observed by NP-kB and AP-1 promoter driven SEAP enzyme secretion.
(§2) HEK-Blue TLR2, HEK-Blue TLR3 and HEK-Blue TLR4 reporter cells expressing SEAP (secreted embryonic alkaline phosphatase) enzyme under NF-kb and AP-1 promoter (Cat. no.# hkb-htlr2, hkb-htlr3 and hkb-htlr4) were purchased from InvivoGen (USA). Human Peripheral blood mononuclear cells (PBMCs) (Cat. no.# CL003-25) were purchased from Himedia laboratories (India). HEK based cells and PBMCs were cultured DMEM and RPMI media, respectively. The cells were maintained at 37° C. incubator with 5% CO2. The culture media was supplemented with 10% Fetal Calf Serum (Gibco) along with standard antibiotics. HEK-Blue selection antibiotics (InvivoGen, Cat. no.# hb-sel, ant-zn and ant-bl) were added as per manufacturers' instructions.
(§3) 2×10^4 HEK-Blue reporter cells were seeded, in each well of a 96 well plate, in HEK-Blue detection media (InvivoGen, Cat. no.# hb-det3) along with the 50 μg/ml of the chito-oligomers. […] The treated cells were incubated at about 37° C. for about 16 hours and absorbance (O.D.) was measured at 620 nm in either TECAN Infinite® 200 PRO or Thermo Scientific Varioskan LUX multimode reader.
Target sequence in this assay (O60603 21-784): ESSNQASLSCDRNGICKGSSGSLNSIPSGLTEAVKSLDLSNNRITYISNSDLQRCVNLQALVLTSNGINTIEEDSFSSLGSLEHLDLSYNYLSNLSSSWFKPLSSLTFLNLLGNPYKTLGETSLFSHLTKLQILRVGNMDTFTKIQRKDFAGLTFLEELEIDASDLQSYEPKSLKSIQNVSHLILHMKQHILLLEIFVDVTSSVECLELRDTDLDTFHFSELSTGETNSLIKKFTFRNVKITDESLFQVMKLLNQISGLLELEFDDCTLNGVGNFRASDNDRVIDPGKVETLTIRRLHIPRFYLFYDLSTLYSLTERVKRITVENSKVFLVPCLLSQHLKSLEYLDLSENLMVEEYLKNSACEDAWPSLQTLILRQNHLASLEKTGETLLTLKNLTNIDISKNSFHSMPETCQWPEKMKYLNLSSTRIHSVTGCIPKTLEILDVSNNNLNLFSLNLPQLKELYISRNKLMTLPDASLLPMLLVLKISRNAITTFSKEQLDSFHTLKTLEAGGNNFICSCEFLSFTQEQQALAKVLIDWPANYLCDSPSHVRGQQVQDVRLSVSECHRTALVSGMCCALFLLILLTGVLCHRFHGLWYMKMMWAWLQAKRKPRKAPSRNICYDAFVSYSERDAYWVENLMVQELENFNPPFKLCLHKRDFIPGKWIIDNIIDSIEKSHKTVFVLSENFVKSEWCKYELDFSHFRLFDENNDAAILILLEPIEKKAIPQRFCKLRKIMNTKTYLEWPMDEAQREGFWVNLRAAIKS

TLR2 [3] = molecular target: T1, TLR2; conditions: Das et al., 2019; cited from earlier work
Target sequence in this assay (O60603 21-784, species assumed): as the sequence (O60603 21-784) above

[4] = system: septic mice in endotoxemia model; experiment: Survival in endotoxemia model (LPS injection), native protein; assay type: in vivo; conditions: treated 6 hours post LPS injection, up to ten days, group G2
Protocol: In this model, post LPS Injection (i.e., 6 hours) animals were treated with vehicle and test agents amongst different groups G1-G5 as specified in figure. G2 (LPS+DIA-1) was treated with the P1 protein while G3 and G4 were other test protein used as experimental controls.

IL-18 = conditions: monocytes, in vitro, FIG. 8
Source text: Increased levels of IL-18 have also been associated with higher mortality in sepsis. In endotoxemia mice models IL-18 knockout mice show better survival than the wild type indicating a role of IL18 in disease severity (Berghe T V, 2014 Eidt M V, 2016).

[5] = system: septic mice in the CLP model (polymicrobial sepsis); experiment: Survival of septic mice in CLP model, native protein; assay type: in vivo
Protocol: About 80% of mice that received 15-35 μg of protein and about 60% mice that received 1-20 μg of protein survived even up to 16 days. More preferably, 80% of mice that received 25 μg of protein and 60% mice that received 10 μg of protein survived even up to 16 days. All the mice in the control group had died in the same duration.

TLR3 = TLR3 (Homo sapiens, UniProt O15455); conditions: P1 fraction, HEK293 reporter cells, FIG. 7
Source text: as §1, §2, §3

THP-1 cells = THP-1 cells treated with P1 and Pp, cytokine secretion; assay type: cell-based, human
Protocol: THP-1 cells (human acute monocytic leukemia cell line) were procured from ATCC (Cat. No# ATCC® TIB-202™). The THP-1 cells were treated with the P1 and Pp to check for any pro-inflammatory activity.

TLR4 = molecular target: T2, TLR4 (Homo sapiens, UniProt O00206); experiment: HEK-Blue TLR4 reporter assay (NF-kb and AP-1 driven SEAP); assay type: cell-based; conditions: P1 fraction, HEK293 reporter cells, FIG. 7
T2 construct: host or cells: HEK293 (HEK-Blue TLR4 reporter cells)
T2 sequence (O00206 24-839): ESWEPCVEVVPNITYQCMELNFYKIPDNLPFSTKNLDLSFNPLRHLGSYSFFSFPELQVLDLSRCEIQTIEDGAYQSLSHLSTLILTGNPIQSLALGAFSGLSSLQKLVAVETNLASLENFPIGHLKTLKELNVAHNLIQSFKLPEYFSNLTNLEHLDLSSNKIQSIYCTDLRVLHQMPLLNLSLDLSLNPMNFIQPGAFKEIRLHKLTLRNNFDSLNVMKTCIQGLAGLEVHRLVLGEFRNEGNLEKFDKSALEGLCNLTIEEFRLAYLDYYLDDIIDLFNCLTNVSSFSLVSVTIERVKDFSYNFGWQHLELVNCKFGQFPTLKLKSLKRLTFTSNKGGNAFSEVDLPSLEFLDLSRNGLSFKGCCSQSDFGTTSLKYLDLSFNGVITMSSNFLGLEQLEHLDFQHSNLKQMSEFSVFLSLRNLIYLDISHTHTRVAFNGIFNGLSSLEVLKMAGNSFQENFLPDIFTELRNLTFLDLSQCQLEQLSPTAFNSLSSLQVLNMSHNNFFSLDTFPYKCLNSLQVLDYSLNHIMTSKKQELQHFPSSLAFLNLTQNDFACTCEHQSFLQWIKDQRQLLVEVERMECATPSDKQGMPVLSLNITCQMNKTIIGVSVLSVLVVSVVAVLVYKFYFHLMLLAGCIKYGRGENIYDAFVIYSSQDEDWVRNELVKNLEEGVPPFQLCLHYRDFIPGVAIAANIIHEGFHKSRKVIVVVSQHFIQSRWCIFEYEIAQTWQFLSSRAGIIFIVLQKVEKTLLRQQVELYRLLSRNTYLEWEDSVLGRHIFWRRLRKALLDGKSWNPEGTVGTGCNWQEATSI
T2 sequence (Q9Y6Y9 17-160 partner limits assumed): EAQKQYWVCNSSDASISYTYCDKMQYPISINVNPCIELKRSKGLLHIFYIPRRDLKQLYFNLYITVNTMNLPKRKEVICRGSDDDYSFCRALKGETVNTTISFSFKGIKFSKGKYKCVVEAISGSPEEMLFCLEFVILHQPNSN
Source text: as §1, §2, §3

[6] = C57BL/6 CLP mice, single dose at 24 hours post-surgery
[7] = CLP mice, 48 hours, versus untreated group, FIG. 5D

In the case of `CC(=O)N[C@H]1[C@H](O[C@H]2[C@H](O)[C@@H](NC(C)=O)[C@H](O[C@H]3[C@H](O)[C@@H](NC(C)=O)C(O)O[C@@H]3CO)O[C@@H]2CO)O[C@H](CO)[C@@H](O[C@@H]2O[C@H](CO)[C@@H](O[C@@H]3O[C@H](CO)[C@@H](O[C@@H]4O[C@H](CO)[C@@H](O)[C@H](O)[C@H]4NC(C)=O)[C@H](O)[C@H]3NC(C)=O)[C@H](O)[C@H]2NC(C)=O)[C@@H]1O` (some centres unmarked) [6-mer, Hexa-N-acetyl Chitohexaose], the “protection over 'Antibiotic-alone' group” value ([1]; C57BL/6 CLP mice) was “no additional protection”, the “survival compared to 'Antibiotic alone' group” value [1, 6] was “no change” and the “plasma IL-6 levels” value (CLP mice; CLP mice) was “significant decrease”. For the same compound, the “levels of IL-1b over time” value (CLP mice) was “no effect”, the “levels of MCP-1 over time” value (CLP mice) was “no effect” and the “levels of TNF-α over time” value (CLP mice) was “no effect”.
For `CC(=O)N[C@H]1[C@H](O[C@H]2[C@H](O)[C@@H](NC(C)=O)[C@H](O[C@H]3[C@H](O)[C@@H](NC(C)=O)[C@H](O[C@H]4[C@H](O)[C@@H](NC(C)=O)C(O)O[C@@H]4CO)O[C@@H]3CO)O[C@@H]2CO)O[C@H](CO)[C@@H](O[C@@H]2O[C@H](CO)[C@@H](O[C@@H]3O[C@H](CO)[C@@H](O[C@@H]4O[C@H](CO)[C@@H](O)[C@H](O)[C@H]4NC(C)=O)[C@H](O)[C@H]3NC(C)=O)[C@H](O)[C@H]2NC(C)=O)[C@@H]1O` (some centres unmarked) [7-mer, Hepta-N-acetyl Chitoheptaose], the “survival over 7 days” value ([1]; C57BL/6 CLP mice) was “around 90%”, the “survival up to 7 days” value ([1]; C57BL/6 CLP mice, single dose at 24 hours post-surgery, FIG. 5B) was 80% and the mortality ([1]; single dose of 200-250 μg 6 hours and 24 hours post-CLP, till day 7, FIG. 4) was “significant mortality reduction”. The “activity in TLR2 reporter cells compared between oligomers” value (TLR2 [2]; HEK-Blue TLR2 reporter cells, 50 μg/ml) was “significantly higher than 8-mer”, the “plasma IL-6 levels” value (CLP mice; CLP mice) was “significant decrease” and the “plasma IL-1b” value (CLP mice; [7]) was “significant reduction”. For the same compound, the “plasma IL-10” value (CLP mice; [7]) was “significant reduction”, the “plasma MCP-1” value (CLP mice; [7]) was “significant reduction” and the “plasma TNF-α” value (CLP mice; [7]) was “significant reduction”. The “levels of IL-1b over time” value (CLP mice) was “significant reduction”, the “levels of MCP-1 over time” value (CLP mice) was “significant reduction” and the “levels of TNF-α over time” value (CLP mice) was “significant reduction”.
For `CC(=O)N[C@H]1[C@H](O[C@H]2[C@H](O)[C@@H](NC(C)=O)[C@H](O[C@H]3[C@H](O)[C@@H](NC(C)=O)[C@H](O[C@H]4[C@H](O)[C@@H](NC(C)=O)C(O)O[C@@H]4CO)O[C@@H]3CO)O[C@@H]2CO)O[C@H](CO)[C@@H](O[C@@H]2O[C@H](CO)[C@@H](O[C@@H]3O[C@H](CO)[C@@H](O[C@@H]4O[C@H](CO)[C@@H](O[C@@H]5O[C@H](CO)[C@@H](O)[C@H](O)[C@H]5NC(C)=O)[C@H](O)[C@H]4NC(C)=O)[C@H](O)[C@H]3NC(C)=O)[C@H](O)[C@H]2NC(C)=O)[C@@H]1O` (some centres unmarked) [8-mer, Octa-N-acetyl Chitooctaose], the “survival over 7 days” value ([1]; C57BL/6 CLP mice) was 40%, the “protection over 'Antibiotic-alone' group” value ([1]; C57BL/6 CLP mice) was “no additional protection” and the “survival compared to 'Antibiotic alone' group” value [1, 6] was “no change”. For the same compound, the “plasma IL-6 levels” value (CLP mice; CLP mice) was “reduced in 8-mer treated mice when compare to untreated mice but the difference was not found to be significant”, the “levels of IL-1b over time” value (CLP mice) was “increase” and the “levels of MCP-1 over time” value (CLP mice) was “increase”. The “levels of TNF-α over time” value (CLP mice) was “increase”.
For `CC(=O)N[C@H]1[C@H](OC2CCCCC2)O[C@H](CO)[C@@H](O[C@@H]2O[C@H](CO)[C@@H](O)[C@H](O)[C@H]2NC(C)=O)[C@@H]1O` [AVR-25], the “binding affinity to TLR2” value (TLR2 [3]) is given as “did not show any binding affinity”.
With “P1: Major G75 size exclusion peak of AgW from Setaria digitata, a pure glycoprotein identified as Heat Shock Protein 70 (SEQ. ID NO. 1)” the survival [4] was 66%, the “reduction in IL-18 transcript levels” value (IL-18) was “more than 60%” and the “activation of TLR2 (SEAP secretion)” value (TLR2 [2]; P1 fraction, HEK293 reporter cells, FIG. 7) was “activates; also recorded: consistently activating”. For the same compound, the “mice survived up to 16 days” value ([5]; 10 μg of protein) was 60%, the “mice survived up to 16 days” value ([5]; 25 μg of protein) was 80% and the “mice survived up to 16 days” value ([5]; 1-20 μg of protein) was “about 60%”. For the same compound, the “mice survived up to 16 days” value ([5]; 15-35 μg of protein) was “About 80%”, the “activation of TLR3 (SEAP secretion)” value (TLR3) was “no activation” and the “alternate activation marker CLEC10A or CD301” value (THP-1 cells; THP-1 cells) was “reduces”. For the same compound, the “secretion of pro-inflammatory cytokines” value (THP-1 cells; THP-1 cells, FIG. 1B) was “highly active”, the “secretion of IL-1b” value (THP-1 cells; THP-1 cells, FIG. 1C) was “promote secretion” and the “secretion of IL-6” value (THP-1 cells; THP-1 cells, FIG. 1C) was “promote secretion”. For the same compound, the “secretion of IL-10” value (THP-1 cells; THP-1 cells, FIG. 1C) was “promote secretion”, the “secretion of MCP-1” value (THP-1 cells; THP-1 cells, FIG. 1C) was “promote secretion” and the “secretion of TNF-α” value (THP-1 cells; THP-1 cells, FIG. 1C) was “promote secretion”. For the same compound, the induction of cytokines (THP-1 cells; THP-1 monocytic cells, FIG. 1C) was “activated the THP-1 monocytic cells” and the “activation of TLR4 (SEAP secretion)” value (TLR4) was “activates; also recorded: consistently activating”.
With “amoxicillin and clavulanate [Antibiotic—alone, reference compound]” the “survival over 7 days” value ([1]; C57BL/6 CLP mice) was 60%.
